Experimental data as given in US4559360A, “Cysteine derivatives, a process for their preparation, and pharmaceutical compositions which contain them” (Magis Farmaceutici S.R.L., priority 1984, dated 1985).

Tests used:
Format in all cases: in vivo
[1] = Acute toxicity in the rat (LD50, Litchfield and Wilcoxon); details: in vivo, 7 days observation
Procedure: (§1) The acute toxicity of the proucts was studied on male and female adult mice of Swiss stock, and on male and female adult rats of Sprague-Dawley stock, by oral and subcutaneous administration. For each method of administration, the tested doses were administered in geometrical progression to 10 animals (5 males and 5 females). After treatment, the animals were kept under observation for 7 days. On termination of this period, the LD50 and the relative confidence limits were calculated by the Litchfield and Wilcoxon method (Pharmacol. Exp. Ther. 96-99, 1949).

[2] = Acute toxicity in the mouse (LD50, Litchfield and Wilcoxon); details: in vivo, 7 days observation
Procedure: as §1

[3] = test system: rats of Sprague-Dawley stock; assay: Acute toxicity in the rat (LD50, Litchfield and Wilcoxon); details: 7 days observation
Procedure: as §1

mice of Swiss stock = assay: Acute toxicity in the mouse (LD50, Litchfield and Wilcoxon); details: 7 days observation
Procedure: as §1

Compound	LD50 at 168 h ([1]; oral) [mg/kg]	LD50 at 168 h ([1]; sc, subcutaneous) [mg/kg]	LD50 at 168 h ([2]; oral) [mg/kg]	LD50 at 168 h ([2]; sc, subcutaneous) [mg/kg]	LD50 ([3]; oral) [mg/kg]	LD50 ([3]; subcutaneous) [mg/kg]	LD50 (mice of Swiss stock; oral) [mg/kg]	LD50 (mice of Swiss stock; subcutaneous) [mg/kg]
CC(=O)Oc1ccccc1C(=O)N[C@@H](CSCC(=O)O)C(=O)O [MSF 01, S-(carboxymethyl)-N-(2-acetoxybenzoyl)-L-cysteine]	4800	4500	4800	4500	–	–	–	–
CC(=O)Oc1ccccc1C(=O)OC(=O)CSC[C@H](N)C(=O)OC(=O)c1ccccc1OC(C)=O [MSF 03, S-carboxymethylcysteine bis-acetylsalicylanhydride]	4500	4200	4300	4100	–	–	–	–
S-(carboxymethyl)-L-cysteine acetylsalicylanhydride [MSF 02]	–	–	–	–	4800	4500	4600	4400
